Data reported in patent US11427549B2, “Pyrimidinyloxy benzo-fused compounds as herbicides” (FMC Corporation, priority 2017, dated 2022).

Assays:
[1] = test system: kochia (Kochia scoparia); test: Test A postemergence, kochia; assay type: in vivo; conditions: Bassia scoparia, post-emergence, 240 h, 0 to 100 scale (0 no effect, 100 complete control), read-out: Plant response rating, Kochia; for pest or weed control at 31 g/ha: 31 g ai/ha; for pest or weed control at 125 g/ha: 125 g ai/ha
[2] = test system: ryegrass, Italian (Italian ryegrass, Lolium multiflorum); test: Test A preemergence, ryegrass, Italian; assay type: in vivo; conditions: Lolium multiflorum, pre-emergence, 240 h, 0 to 100 scale (0 no effect, 100 complete control), read-out: Plant response rating, Ryegrass, Italian; for pest or weed control at 31 g/ha: 31 g ai/ha; for pest or weed control at 125 g/ha: 125 g ai/ha
[3] = test system: barnyardgrass (Echinochloa crus-galli); test: Test A postemergence, barnyardgrass; assay type: in vivo; conditions: Echinochloa crus-galli, post-emergence, 240 h, 0 to 100 scale (0 no effect, 100 complete control), read-out: Plant response rating, Barnyardgrass; for pest or weed control at 31 g/ha: 31 g ai/ha; for pest or weed control at 125 g/ha: 125 g ai/ha
[4] = test system: wheat (Triticum aestivum); test: Test A postemergence, wheat; assay type: in vivo; conditions: Triticum aestivum, post-emergence, 240 h, 0 to 100 scale (0 no effect, 100 complete control), read-out: Plant response rating, Wheat; for plant injury at 31 g/ha: 31 g ai/ha; for plant injury at 125 g/ha: 125 g ai/ha
[5] = test system: barnyardgrass (Echinochloa crus-galli); test: Test B flooded paddy test, barnyardgrass; conditions: Echinochloa crus-galli, read-out: Plant response rating, Barnyardgrass (0 to 100 scale, 0 is no effect, 100 is complete control)
[6] = test system: ducksalad (Heteranthera limosa); test: Test B flooded paddy test, ducksalad; conditions: Heteranthera limosa, read-out: Plant response rating, Ducksalad (0 to 100 scale, 0 is no effect, 100 is complete control)
[7] = test system: barnyardgrass (Echinochloa crus-galli); test: Test A preemergence, barnyardgrass; assay type: in vivo; conditions: Echinochloa crus-galli, pre-emergence, 240 h, 0 to 100 scale (0 no effect, 100 complete control), read-out: Plant response rating, Barnyardgrass; for pest or weed control at 31 g/ha: 31 g ai/ha; for pest or weed control at 125 g/ha: 125 g ai/ha
[8] = test system: ryegrass, Italian (Italian ryegrass, Lolium multiflorum); test: Test A postemergence, ryegrass, Italian; assay type: in vivo; conditions: Lolium multiflorum, post-emergence, 240 h, 0 to 100 scale (0 no effect, 100 complete control), read-out: Plant response rating, Ryegrass, Italian; for pest or weed control at 31 g/ha: 31 g ai/ha; for pest or weed control at 125 g/ha: 125 g ai/ha
[9] = test system: corn (Zea mays); test: Test A postemergence, corn; assay type: in vivo; conditions: Zea mays, post-emergence, 240 h, 0 to 100 scale (0 no effect, 100 complete control); for Corn plant response rating (crop injury, 0 = no effect, 100 = complete kill) at 31 g/ha: 31 g ai/ha; for Corn plant response rating (crop injury, 0 = no effect, 100 = complete kill) at 125 g/ha: 125 g ai/ha
[10] = test system: ragweed (common ragweed, Ambrosia elatior); test: Test A preemergence, ragweed; assay type: in vivo; conditions: Ambrosia artemisiifolia, pre-emergence, 240 h, 0 to 100 scale (0 no effect, 100 complete control), read-out: Plant response rating, Ragweed; for pest or weed control at 31 g/ha: 31 g ai/ha; for pest or weed control at 125 g/ha: 125 g ai/ha
[11] = test system: kochia (Kochia scoparia); test: Test A preemergence, kochia; assay type: in vivo; conditions: Bassia scoparia, pre-emergence, 240 h, 0 to 100 scale (0 no effect, 100 complete control), read-out: Plant response rating, Kochia; for pest or weed control at 31 g/ha: 31 g ai/ha; for pest or weed control at 125 g/ha: 125 g ai/ha
[12] = test system: pigweed (Amaranthus retroflexus); test: Test A preemergence, pigweed; assay type: in vivo; conditions: Amaranthus retroflexus, pre-emergence, 240 h, 0 to 100 scale (0 no effect, 100 complete control), read-out: Plant response rating, Pigweed; for pest or weed control at 31 g/ha: 31 g ai/ha; for pest or weed control at 125 g/ha: 125 g ai/ha
[13] = test system: rice (Oryza sativa); test: Test B flooded paddy test, rice; conditions: Oryza sativa, read-out: Plant response rating, Rice (0 to 100 scale, 0 is no effect, 100 is complete control)
[14] = test system: galium (catchweed bedstraw, Galium aparine); test: Test A postemergence, galium; assay type: in vivo; conditions: Galium, post-emergence, 240 h, 0 to 100 scale (0 no effect, 100 complete control), read-out: Plant response rating, Galium; for pest or weed control at 31 g/ha: 31 g ai/ha; for pest or weed control at 125 g/ha: 125 g ai/ha
[15] = test system: blackgrass (Alopecurus myosuroides); test: Test A postemergence, blackgrass; assay type: in vivo; conditions: Alopecurus myosuroides, post-emergence, 240 h, 0 to 100 scale (0 no effect, 100 complete control), read-out: Plant response rating, Blackgrass; for pest or weed control at 31 g/ha: 31 g ai/ha; for pest or weed control at 125 g/ha: 125 g ai/ha
[16] = test system: ragweed (common ragweed, Ambrosia elatior); test: Test A postemergence, ragweed; assay type: in vivo; conditions: Ambrosia artemisiifolia, post-emergence, 240 h, 0 to 100 scale (0 no effect, 100 complete control), read-out: Plant response rating, Ragweed; for pest or weed control at 31 g/ha: 31 g ai/ha; for pest or weed control at 125 g/ha: 125 g ai/ha
[17] = test system: pigweed (Amaranthus retroflexus); test: Test A postemergence, pigweed; assay type: in vivo; conditions: Amaranthus retroflexus, post-emergence, 240 h, 0 to 100 scale (0 no effect, 100 complete control), read-out: Plant response rating, Pigweed; for pest or weed control at 31 g/ha: 31 g ai/ha; for pest or weed control at 125 g/ha: 125 g ai/ha

SMILES	pest or weed control at 31 g/ha [1] [%]	pest or weed control at 125 g/ha [1] [%]	pest or weed control at 31 g/ha [2] [%]	pest or weed control at 125 g/ha [2] [%]	pest or weed control at 31 g/ha [3] [%]	pest or weed control at 125 g/ha [3] [%]	plant injury at 31 g/ha [4] [%]	plant injury at 125 g/ha [4] [%]	pest or weed control at 250 g/ha [5] [%]	pest or weed control at 250 g/ha [6] [%]	pest or weed control at 31 g/ha [7] [%]	pest or weed control at 125 g/ha [7] [%]	pest or weed control at 31 g/ha [8] [%]	pest or weed control at 125 g/ha [8] [%]	Corn plant response rating (crop injury, 0 = no effect, 100 = complete kill) at 31 g/ha [9] [%]	Corn plant response rating (crop injury, 0 = no effect, 100 = complete kill) at 125 g/ha [9] [%]	pest or weed control at 31 g/ha [10] [%]	pest or weed control at 125 g/ha [10] [%]	pest or weed control at 31 g/ha [11] [%]	pest or weed control at 125 g/ha [11] [%]	further results
FC(F)(F)CCC1OCc2cccc(Oc3ncc(Cl)cn3)c21 (stereo not shown) [Compound 8, 5-Chloro-2-[[1,3-dihydro-3-(3,3,3-trifluoropropyl)-4-isobenzofuranyl]oxy]pyrimidine]	80	90	10	70	10	50	0	50	35	100	80	100	10	50	10	50	0	10	20	100	pest or weed control at 31 g/ha [12]: 100%; pest or weed control at 125 g/ha [12]: 100%; plant injury at 250 g/ha [13]: 20%; pest or weed control at 31 g/ha [14]: 30%; pest or weed control at 125 g/ha [14]: 80%; pest or weed control at 31 g/ha [15]: 30%; pest or weed control at 125 g/ha [15]: 100%; pest or weed control at 31 g/ha [16]: 10%; pest or weed control at 125 g/ha [16]: 20%; pest or weed control at 31 g/ha [17]: 100%; pest or weed control at 125 g/ha [17]: 100%
FC(F)(F)CCCC1CCc2cccc(Oc3ncc(Cl)cn3)c21 (stereo not shown) [Compound 9, 5-Chloro-2-[[2,3-dihydro-3-(4,4,4-trifluorobutyl)-1H-inden-4-yl]oxy]pyrimidine]	50	80	10	50	20	50	10	20	70	100	10	90	10	30	20	30	0	10	10	50	pest or weed control at 31 g/ha [12]: 10%; pest or weed control at 125 g/ha [12]: 100%; plant injury at 250 g/ha [13]: 50%; pest or weed control at 31 g/ha [14]: 20%; pest or weed control at 125 g/ha [14]: 30%; pest or weed control at 31 g/ha [15]: 20%; pest or weed control at 125 g/ha [15]: 80%; pest or weed control at 31 g/ha [16]: 0%; pest or weed control at 125 g/ha [16]: 10%; pest or weed control at 31 g/ha [17]: 80%; pest or weed control at 125 g/ha [17]: 100%
OC1CC(CCCC(F)(F)F)c2c(Oc3ncc(Cl)cn3)cccc21 (stereo not shown) [Compound 10, 4-[(5-Chloro-2-pyrimidinyl)oxy]-2,3-dihydro-3-(4,4,4-trifluorobutyl)-1H-inden-1-ol]	10	60	10	30	10	40	0	10	45	95	10	70	0	30	10	30	0	0	0	30	pest or weed control at 31 g/ha [12]: 100%; pest or weed control at 125 g/ha [12]: 100%; plant injury at 250 g/ha [13]: 25%; pest or weed control at 31 g/ha [14]: 10%; pest or weed control at 125 g/ha [14]: 20%; pest or weed control at 31 g/ha [15]: 10%; pest or weed control at 125 g/ha [15]: 20%; pest or weed control at 31 g/ha [16]: 0%; pest or weed control at 125 g/ha [16]: 10%; pest or weed control at 31 g/ha [17]: 50%; pest or weed control at 125 g/ha [17]: 90%
CN1C(=O)c2cccc(Oc3ncc(Cl)cn3)c2C1CCCC(F)(F)F (stereo not shown) [Compound 12, 4-[(5-Chloro-2-pyrimidinyl)oxy]-2,3-dihydro-2-methyl-3-(4,4,4-trifluorobutyl)-1H-isoindol-1-one]	0	10	0	0	0	0	0	0	0	0	0	0	0	0	0	10	0	0	0	0	pest or weed control at 31 g/ha [12]: 0%; pest or weed control at 125 g/ha [12]: 0%; plant injury at 250 g/ha [13]: 0%; pest or weed control at 31 g/ha [14]: 0%; pest or weed control at 125 g/ha [14]: 10%; pest or weed control at 31 g/ha [15]: 0%; pest or weed control at 125 g/ha [15]: 0%; pest or weed control at 31 g/ha [16]: 0%; pest or weed control at 125 g/ha [16]: 20%; pest or weed control at 31 g/ha [17]: 0%; pest or weed control at 125 g/ha [17]: 30%
